A short description of one data set: in vivo. Further details: species or system Sprague-Dawley rats. Particulars: rat, iv, 0.033 mg/kg. In short, it runs like this: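 Peptide plasma levels measured by UPLC-MS/MS (C18, product-ion monitoring) after protein precipitation or WCX SPE, calibrated in K2EDTA/protease-inhibitor rat plasma. Dosing in non-fasted male Sprague-Dawley rats (n=3): 0.033 mg/kg over 1 h by IV or SC infusion, or 0.3 mg/kg SC bolus; sampling up to 48 h.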

Data set [1] is described as follows: Acute food intake inhibition after SC bolus injection (BioDAQ). To be noted: Long Evans rats on 45% high fat diet.
Data set [2] can be described thus: 13-day dose-response body weight loss, continuous SC infusion by osmotic mini-pump. To be noted: 13 days, LE DIO rats.
Data set [3] can be described thus: Solubility of amylin analog polypeptides (visual inspection, room temperature). In kind it is physicochemical. On the procedure:
The analog polypeptides described herein were tested for solubility in saline 20% DMSO in water (i.e., bioassay buffer) or in aqueous (DI water) at room temperature. Samples were visually inspected for clarity of the sample, any appearance of turbidity or haziness.

A short description of data set [4]: 27-day weight loss in combination with exenatide. To be noted: LE DIO rats.
Data set [5] in a line: Stability of amylin analog polypeptides in solution at 37° C. (purity by LC/MS and HPLC). In kind it is physicochemical. To be noted: 1 mg/ml, trifluoro acetate salt. The method, then: Several amylin analog polypeptides described herein were tested, as the trifluoro acetate salt, for stability in DMSO (i.e., organosulfur solvent) or in aqueous (i.e., in DI water) at 1 mg/ml solution. These analog polypeptides were incubated at 37° C., and samples were withdrawn at various time intervals and analyzed by LC/MS and HPLC for determination of purity and mass of the parent peptide and extent of any degradation products. The purity results of these analyses are shown in Tables 6A & 6B and are considered indicative of stability.

Setting [6] is: TFA salt, DI H2O, room temperature, read-out: Solubility.

Converted amounts (≈) assume the structure as drawn. Read-outs that look alike come from different tables or passages of the source. Starred links: 1 amine or outer side, 2 acyl side, 3 side chain; linkers in the order of their positions; H or OH if unused. Positions of bridges follow the written chain, without caps; N, C: chain ends. Non-standard residues stand in square brackets, D forms with d. Residues, ends and D or L forms follow the SMILES beside them. Groups on a side chain read outwards from the residue. *: point of attachment. C20 diacid = O=C(O)CCCCCCCCCCCCCCCCCCC(=O)*; γGlu = O=C(O)[C@H](CCC(=O)[*:2])N[*:1]; Stearoyl = CCCCCCCCCCCCCCCCCC(=O)*; Palmitoyl = CCCCCCCCCCCCCCCC(=O)*

The molecule `CCCCCCCCCCCCCCCCCC(=O)N[C@@H](CCC(=O)N[C@@H](CCC(=O)N[C@@H](CCC(=O)NCCCC[C@@H](NC(=O)[C@H](CCC(=O)O)NC(=O)[C@H](CC(N)=O)NC(=O)[C@H](C)NC(=O)[C@H](CC(C)C)NC(=O)[C@H](CCCNC(=N)N)NC(=O)[C@H](CCC(N)=O)NC(=O)[C@@H](NC(=O)[C@H](C)NC(=O)[C@@H]1CSSC[C@H](NC(=O)[C@@H](N)CO)C(=O)N[C@@H](CC(N)=O)C(=O)N[C@@H]([C@@H](C)O)C(=O)N[C@@H](CO)C(=O)N[C@@H]([C@@H](C)O)C(=O)N1)[C@@H](C)O)C(=O)N[C@@H](Cc1c[nH]cn1)C(=O)N[C@@H](CCCCN)C(=O)N[C@@H](CO)C(=O)N[C@@H](CO)C(=O)N[C@@H](CC(N)=O)C(=O)N[C@@H](CC(N)=O)C(=O)N[C@@H](Cc1ccccc1)C(=O)NCC(=O)N1CCC[C@H]1C(=O)N[C@H](C(=O)N[C@@H](CC(C)C)C(=O)N1CCC[C@H]1C(=O)N1CCC[C@H]1C(=O)N[C@H](C(=O)N[C@@H](CCCCN)C(=O)N[C@H](C(=O)NCC(=O)N[C@@H](CO)C(=O)N[C@@H](CCC(=O)O)C(=O)N[C@H](C(=O)N[C@@H](Cc1ccc(O)cc1)C(N)=O)[C@@H](C)O)C(C)C)[C@@H](C)O)[C@@H](C)CC)C(=O)O)C(=O)O)C(=O)O` [Compound A13] (H-SCNTSTCATQRLANE[dK]([γGlu-γGlu-γGlu-Stearoyl])HKSSNNFGPILPPTKVGSETY-NH2; disulfide 2-7; N-terminus assumed) came in with a Vd in the data set “in vivo” (male, Sprague-Dawley) of 0.398 L/kg. Besides, the clearance in the data set “in vivo” (male, Sprague-Dawley) came out at 0.705 mL/min/kg. For the same molecule, in “in vivo” (male, Sprague-Dawley), the half-life is 452 min. Moreover, the “Acute Food Intake % Inhibition vs vehicle” value in data set [1] (0-24 hr after acute SC dosing) stood at 67%; in data set [1] (25-48 hr after acute SC dosing), 37%; in data set [1] (49-72 hr after acute SC dosing) it was 6%. The “DIO Dose Response 13 d weight loss, ED50” value in data set [2] came out at 55 µg/kg. Further, the “DIO Dose Response 13 d weight loss, ΔΔ % weight loss” value in data set [2] (from baseline and vehicle control) was 5%. Moreover, in data set [3] (Solubility), the concentration in solution (solubility) came to 63 mg/mL (≈ 13.6 mM). Besides, the figures for the “DIO Combination + Exenatide 27 d weight loss, ΔΔ % weight loss” value in data set [4] (dose 3 mcg/kg + Exenatide 10 mcg/kg), in data set [4] (dose 10 mcg/kg + Exenatide 10 mcg/kg) and in data set [4] (dose 30 mcg/kg + Exenatide 10 mcg/kg) were 9%, 12% and 12%, respectively.

For the molecule `CC[C@H](C)[C@H](NC(=O)[C@@H]1CCCN1C(=O)CNC(=O)[C@H](Cc1ccccc1)NC(=O)[C@H](CC(N)=O)NC(=O)[C@H](CC(N)=O)NC(=O)[C@H](CO)NC(=O)[C@H](CO)NC(=O)[C@H](CCCCN)NC(=O)[C@H](Cc1c[nH]cn1)NC(=O)[C@H](CC(C)C)NC(=O)[C@H](CCC(=O)O)NC(=O)[C@H](CC(N)=O)NC(=O)[C@H](C)NC(=O)[C@H](CC(C)C)NC(=O)[C@H](CCCNC(=N)N)NC(=O)[C@H](CCC(N)=O)NC(=O)[C@@H](NC(=O)[C@H](C)NC(=O)[C@@H]1CSSC[C@H](NC(=O)[C@@H](N)CCCCNC(=O)CC[C@H](NC(=O)CC[C@H](NC(=O)CCCCCCCCCCCCCCCCCCC(=O)O)C(=O)O)C(=O)O)C(=O)N[C@@H](CC(N)=O)C(=O)N[C@@H]([C@@H](C)O)C(=O)N[C@@H](CO)C(=O)N[C@@H]([C@@H](C)O)C(=O)N1)[C@@H](C)O)C(=O)N[C@@H](CC(C)C)C(=O)N1CCC[C@H]1C(=O)N1CCC[C@H]1C(=O)N[C@H](C(=O)N[C@@H](CCCCN)C(=O)N[C@H](C(=O)NCC(=O)N[C@@H](CO)C(=O)N[C@@H](CCC(=O)O)C(=O)N[C@H](C(=O)N[C@@H](Cc1ccc(O)cc1)C(N)=O)[C@@H](C)O)C(C)C)[C@@H](C)O` [Compound A64] (H-K([γGlu-γGlu-C20 diacid])CNTSTCATQRLANELHKSSNNFGPILPPTKVGSETY-NH2; disulfide 2-7; N-terminus assumed), the Vd in the data set “in vivo” was 0.182 L/kg. Also, the clearance in the data set “in vivo” amounted to 0.0641 mL/min/kg. Further, the half-life in the data set “in vivo” is 2230 min. For the same molecule, the purity of parent peptide (indicative of stability) in data set [5] (20% DMSO in DI Water, Day 0 room temp) came out at 98.8%; in data set [5] (20% DMSO in DI Water, Day 5 37° C.) it was 98.1%; in data set [5] (20% DMSO in DI Water, Day 8 37° C.) it was 98.6%; in data set [5] (20% DMSO in DI Water, Day 12 37° C.), 97.9%; in data set [5] (20% DMSO in DI Water, Day 19 37° C.), 97.2%; in data set [5] (20% DMSO in DI Water, Day 25 37° C.), 97.3%. Further, the purity of parent peptide (indicative of stability) in data set [5] (20% DMSO in DI Water, Day 32 37° C.) worked out at 97.2%; in data set [5] (DI Water, Day 0 room temp), 100%; in data set [5] (DI Water, Day 5 37° C.), 99.1%; in data set [5] (DI Water, Day 8 37° C.), 98.1%; in data set [5] (DI Water, Day 12 37° C.) it was 98.1%; in data set [5] (DI Water, Day 19 37° C.) it was 97.4%. Further, the purity of parent peptide (indicative of stability) is 97.3% in data set [5] (DI Water, Day 25 37° C.) and 88.5% in data set [5] (DI Water, Day 32 37° C.). For the same molecule, the solubility worked out at 123 mg/mL in data set [3] (Acetate salt, 20% DMSO in DI H2O, room temperature, read-out: Solubility); 104 mg/mL in data set [3] (Acetate salt, DI H2O, room temperature, read-out: Solubility); 88.3 mg/mL in data set [3] (Acetate salt, Saline, room temperature, read-out: Solubility); 56 mg/mL in data set [3] (TFA salt, 20% DMSO in DI H2O, room temperature, read-out: Solubility); 103 mg/mL in data set [3] (setting [6]).

In “in vivo”, `CCCCCCCCCCCCCCCC(=O)N[C@@H](CCC(=O)N[C@@H](CCC(=O)N[C@@H](CCC(=O)NCCCC[C@@H](NC(=O)[C@H](CCC(=O)O)NC(=O)[C@H](CC(N)=O)NC(=O)[C@H](C)NC(=O)[C@H](CC(C)C)NC(=O)[C@H](CCCNC(=N)N)NC(=O)[C@H](CCC(N)=O)NC(=O)[C@@H](NC(=O)[C@H](C)NC(=O)[C@@H]1CSSC[C@H](NC(=O)[C@@H](N)CO)C(=O)N[C@@H](CC(N)=O)C(=O)N[C@@H]([C@@H](C)O)C(=O)N[C@@H](CO)C(=O)N[C@@H]([C@@H](C)O)C(=O)N1)[C@@H](C)O)C(=O)N[C@@H](Cc1c[nH]cn1)C(=O)N[C@@H](CCCCN)C(=O)N[C@@H](CO)C(=O)N[C@@H](CO)C(=O)N[C@@H](CC(N)=O)C(=O)N[C@@H](CC(N)=O)C(=O)N[C@@H](Cc1ccccc1)C(=O)NCC(=O)N1CCC[C@H]1C(=O)N[C@H](C(=O)N[C@@H](CC(C)C)C(=O)N1CCC[C@H]1C(=O)N1CCC[C@H]1C(=O)N[C@H](C(=O)N[C@@H](CCCCN)C(=O)N[C@H](C(=O)NCC(=O)N[C@@H](CO)C(=O)N[C@@H](CC(N)=O)C(=O)N[C@H](C(=O)N[C@@H](Cc1ccc(O)cc1)C(N)=O)[C@@H](C)O)C(C)C)[C@@H](C)O)[C@@H](C)CC)C(=O)O)C(=O)O)C(=O)O` [Compound A67] (H-SCNTSTCATQRLANE[dK]([γGlu-γGlu-γGlu-Palmitoyl])HKSSNNFGPILPPTKVGSNTY-NH2; disulfide 2-7) had a Vd of 0.198 L/kg, a clearance of 0.357 mL/min/kg and a half-life of 428 min. In addition, the solubility in data set [3] (setting [6]) is 70.6 mg/mL.

The term Vd denotes the apparent volume that relates the amount in the body to the concentration in plasma or blood. In general, clearance refers to the rate of elimination divided by the concentration. One may read the half-life as the time needed for the level to fall by half in the phase considered. Read a low half-life as fast loss. Broadly, the solubility is the dissolved amount per volume that the medium holds.

These data come from patent publication US12018059B2, “Human amylin analog polypeptides and methods of use” (Intarcia Therapeutics, Inc., priority 2018, dated 2024).
